# Measurements reported in US11058680B2, “Combinations of opioid/TLR4 antagonists and acetaminophen for use in the treatment of emotional pain and insomnia” (Allodynic Threapeutics, LLC, priority 2016, dated 2021).
# Tested on: migraine attacks
# Assay: Naltrexone/acetaminophen open-label pilot study, acute treatment of migraine: headache pain (4-point scale; relief score ≤1, pain-free score = 0), associated symptoms, additional meds
# Type: in vivo, human
# Procedure: Sixteen unique patients were enrolled in an open phase pilot study for the acute treatment of migraine attacks, insomnia, and emotional pain. Of the sixteen patients, eleven were evaluated for one migraine attack, one for two attacks, two for four attacks, one for six attacks, and one for fourteen attacks. A total of forty-one […] treatments were evaluated. Patients received a single dose of one of the following treatment options:
# The majority of the patients remained in the clinic for observation for 2 hours after dosing. They completed headache diary assessments immediately before and after dosing at time points: 7, 15, and 30 minutes; and 1, 1.5, 2, 3, 6, 12, 24, and 48 hours. Headache pain was assessed on a 4-point scale (0=none; 1=mild; 2=moderate; 3=severe). The assessment of photophobia, phonophobia, nausea, and neck/shoulder pain was assessed as present or absent. The assessment of emotional pain was recorded on a 4-point scale (0=none, 1=mild, 2=moderate, 3=severe). The assessment of difficulty sleeping or falling asleep (insomnia) was assessed on a 4-point scale (0=none, 1=mild, 2=moderate, 3=severe) at baseline, for the night before treatment and for the following nights at 24, and 48 hours. Patients recorded side effects severity at each time point. Patients recorded the time of the first rescue medication dose and all additional headache medications used within 48 hours. Patients were required to stay awake to record their assessments in the first 2 hours, sleeping was permitted thereafter. While asleep, assessments were completed according to patients' best estimation. For data analysis, it was assumed that a migraine attack is a unique patient. Patients were asked to specify (yes or no answer) to whether they experienced emotional pain symptoms such as: hurt feelings, sadness, fear, or anger. Patients who replied positively to having emotional pain were asked to specify the cause into one of the following options: relationship, work/school, money/debt, health, or loss/grief.
# [1] = 7 min, NTX/APAP 2.25 mg/325 mg, NTX 2.25 mg
# [2] = 7 min, NTX/APAP 3.25 mg/325 mg, NTX 3.25 mg
# [3] = 7 min, NTX/APAP 5 mg/325 mg, NTX 5 mg
# [4] = 7 min, naltrexone/acetaminophen 2.25 mg/325 mg (N=15), naltrexone 2.25 mg (N=3)
# [5] = 15 min, NTX/APAP 2.25 mg/325 mg, NTX 2.25 mg
# [6] = 15 min, NTX/APAP 3.25 mg/325 mg, NTX 3.25 mg
# [7] = 15 min, NTX/APAP 5 mg/325 mg, NTX 5 mg
# [8] = 15 min, NTX/APAP […]325 mg, NTX 1.5 mg
# [9] = 15 min, naltrexone/acetaminophen 2.25 mg/325 mg (N=21), naltrexone 2.25 mg (N=9)
# [10] = 30 min, NTX/APAP 2.25 mg/325 mg, NTX 2.25 mg
# [11] = 30 min, NTX/APAP 3.25 mg/325 mg, NTX 3.25 mg
# [12] = 30 min, NTX/APAP 5 mg/325 mg, NTX 5 mg
# [13] = 30 min, NTX/APAP […]325 mg, NTX 1.5 mg
# [14] = 30 min, naltrexone/acetaminophen 2.25 mg/325 mg (N=21), naltrexone 2.25 mg (N=9)
# [15] = 1 h, NTX/APAP 2.25 mg/325 mg, NTX 2.25 mg
# [16] = 1 h, NTX/APAP 3.25 mg/325 mg, NTX 3.25 mg
smiles,measurement,setting,value
O=C1CC[C@@]2(O)[C@H]3Cc4ccc(O)c5c4[C@@]2(CCN3CC2CC2)[C@H]1O5 [naltrexone],Additional meds taken,[1],0 (0)
same,Headache pain-free,[1],0 (0) n (%)
same,Headache pain-relief,[1],0 (0) n (%)
same,Most bothersome symptom free,[1],0 (0) n (%)
same,Nausea-free,[1],0 (0) n (%)
same,Neck/shoulder pain-free,[1],2 (67) n (%)
same,Phonophobia-free,[1],2 (67) n (%)
same,Photophobia-free,[1],0 (0) n (%)
same,Additional meds taken,[2],0
same,Headache pain-free,[2],0 n (%)
same,Headache pain-relief,[2],0 n (%)
same,Most bothersome symptom free,[2],0 n (%)
same,Nausea-free,[2],2 n (%)
same,Neck/shoulder pain-free,[2],0 n (%)
same,Phonophobia-free,[2],0 n (%)
same,Photophobia-free,[2],1 n (%)
same,Additional meds taken,[3],0
same,Headache pain-free,[3],0 n (%)
same,Headache pain-relief,[3],0 n (%)
same,Most bothersome symptom free,[3],0 n (%)
same,Nausea-free,[3],0 n (%)
same,Neck/shoulder pain-free,[3],0 n (%)
same,Phonophobia-free,[3],0 n (%)
same,Photophobia-free,[3],0 n (%)
same,Additional meds taken,"7 min, all doses combined",0 (0)
same,Headache pain-free,"7 min, all doses combined",0 (0) n (%)
same,Headache pain-relief,"7 min, all doses combined",0 (0) n (%)
same,Most bothersome symptom free,"7 min, all doses combined",0 (0) n (%)
same,Nausea-free,"7 min, all doses combined",2 (33) n (%)
same,Neck/shoulder pain-free,"7 min, all doses combined",2 (33) n (%)
same,Phonophobia-free,"7 min, all doses combined",2 (33) n (%)
same,Photophobia-free,"7 min, all doses combined",1 (16) n (%)
same,Headache pain-free,[4],0%
same,Most bothersome symptom-free,[4],0%
same,Additional meds taken,[5],0 (0)
same,Headache pain-free,[5],0 (0) n (%)
same,Headache pain-relief,[5],4 (44) n (%)
same,Most bothersome symptom free,[5],1 (11) n (%)
same,Nausea-free,[5],3 (33) n (%)
same,Neck/shoulder pain-free,[5],4 (44) n (%)
same,Phonophobia-free,[5],4 (44) n (%)
same,Photophobia-free,[5],3 (33) n (%)
same,Additional meds taken,[6],0
same,Headache pain-free,[6],0 n (%)
same,Headache pain-relief,[6],2 n (%)
same,Most bothersome symptom free,[6],0 n (%)
same,Nausea-free,[6],3 n (%)
same,Neck/shoulder pain-free,[6],0 n (%)
same,Phonophobia-free,[6],0 n (%)
same,Photophobia-free,[6],1 n (%)
same,Additional meds taken,[7],1
same,Headache pain-free,[7],0 n (%)
same,Headache pain-relief,[7],0 n (%)
same,Most bothersome symptom free,[7],0 n (%)
same,Nausea-free,[7],0 n (%)
same,Neck/shoulder pain-free,[7],0 n (%)
same,Phonophobia-free,[7],0 n (%)
same,Photophobia-free,[7],0 n (%)
same,Additional meds taken,[8],0
same,Headache pain-free,[8],0 n (%)
same,Headache pain-relief,[8],1 n (%)
same,Most bothersome symptom free,[8],0 n (%)
same,Nausea-free,[8],2 n (%)
same,Neck/shoulder pain-free,[8],1 n (%)
same,Phonophobia-free,[8],0 n (%)
same,Photophobia-free,[8],0 n (%)
same,Additional meds taken,"15 min, all doses combined",0 (0)
same,Headache pain-free,"15 min, all doses combined",0 (0) n (%)
same,Headache pain-relief,"15 min, all doses combined",7 (44) n (%)
same,Most bothersome symptom free,"15 min, all doses combined",1 (6) n (%)
same,Nausea-free,"15 min, all doses combined",8 (50) n (%)
same,Neck/shoulder pain-free,"15 min, all doses combined",5 (31) n (%)
same,Phonophobia-free,"15 min, all doses combined",4 (25) n (%)
same,Photophobia-free,"15 min, all doses combined",4 (25) n (%)
same,Headache pain-free,[9],0%
same,Headache pain-relief,[9],44%
same,Most bothersome symptom-free,[9],11%
same,Additional meds taken,[10],0
same,Headache pain-free,[10],2 (22) n (%)
same,Headache pain-relief,[10],7 (78) n (%)
same,Most bothersome symptom free,[10],6 (67) n (%)
same,Nausea-free,[10],8 (88) n (%)
same,Neck/shoulder pain-free,[10],6 (67) n (%)
same,Phonophobia-free,[10],7 (78) n (%)
same,Photophobia-free,[10],5 (56) n (%)
same,Additional meds taken,[11],0 (0)
same,Headache pain-free,[11],0 (0) n (%)
same,Headache pain-relief,[11],2 (66) n (%)
same,Most bothersome symptom free,[11],0 (0) n (%)
same,Nausea-free,[11],2 (66) n (%)
same,Neck/shoulder pain-free,[11],0 (0) n (%)
same,Phonophobia-free,[11],0 (0) n (%)
same,Photophobia-free,[11],1 (33) n (%)
same,Additional meds taken,[12],0 (0)
same,Headache pain-free,[12],0 (0) n (%)
same,Headache pain-relief,[12],0 (0) n (%)
same,Most bothersome symptom free,[12],0 (0) n (%)
same,Nausea-free,[12],0 (0) n (%)
same,Neck/shoulder pain-free,[12],1 (100) n (%)
same,Phonophobia-free,[12],1 (100) n (%)
same,Photophobia-free,[12],1 (100) n (%)
same,Additional meds taken,[13],0 (0)
same,Headache pain-free,[13],0 (0) n (%)
same,Headache pain-relief,[13],2 (66) n (%)
same,Most bothersome symptom free,[13],0 (0) n (%)
same,Nausea-free,[13],2 (66) n (%)
same,Neck/shoulder pain-free,[13],1 (33) n (%)
same,Phonophobia-free,[13],0 (0) n (%)
same,Photophobia-free,[13],0 (0) n (%)
same,Additional meds taken,"30 min, all doses combined",0 (0)
same,Headache pain-free,"30 min, all doses combined",2 (13) n (%)
same,Headache pain-relief,"30 min, all doses combined",10 (63) n (%)
same,Most bothersome symptom free,"30 min, all doses combined",6 (38) n (%)
same,Nausea-free,"30 min, all doses combined",12 (75) n (%)
same,Neck/shoulder pain-free,"30 min, all doses combined",8 (50) n (%)
same,Phonophobia-free,"30 min, all doses combined",8 (50) n (%)
same,Photophobia-free,"30 min, all doses combined",7 (48) n (%)
same,Headache pain-free,"30 min, naltrexone 1.5 mg (N=3)",0%
same,Headache pain-free,[14],22%
same,Headache pain-relief,[14],78%
same,Most bothersome symptom-free,[14],67%
same,Headache pain-free,"30 min, naltrexone/acetaminophen 3.25 mg/325 mg (N=3), naltrexone 3.25 mg (N=3)",0%
same,Additional meds taken,[15],0 (0)
same,Headache pain-free,[15],4 (44) n (%)
same,Headache pain-relief,[15],8 (88) n (%)
same,Most bothersome symptom free,[15],7 (77) n (%)
same,Nausea-free,[15],9 (100) n (%)
same,Neck/shoulder pain-free,[15],6 (66) n (%)
same,Phonophobia-free,[15],8 (88) n (%)
same,Photophobia-free,[15],6 (66) n (%)
same,Additional meds taken,[16],0
same,Headache pain-free,[16],3 (100) n (%)
